Each structure is given as a SMILES string. Calls of active or inactive are those of the source.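 The calls were made as follows: active = mean EC50, the dose giving half of full activation, below a set limit (actives reach about 84 µM in these data); inactive = the rest.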

Sequence of Alkaline phosphatase, placental type (Homo sapiens) (P05187 whole entry, looked up): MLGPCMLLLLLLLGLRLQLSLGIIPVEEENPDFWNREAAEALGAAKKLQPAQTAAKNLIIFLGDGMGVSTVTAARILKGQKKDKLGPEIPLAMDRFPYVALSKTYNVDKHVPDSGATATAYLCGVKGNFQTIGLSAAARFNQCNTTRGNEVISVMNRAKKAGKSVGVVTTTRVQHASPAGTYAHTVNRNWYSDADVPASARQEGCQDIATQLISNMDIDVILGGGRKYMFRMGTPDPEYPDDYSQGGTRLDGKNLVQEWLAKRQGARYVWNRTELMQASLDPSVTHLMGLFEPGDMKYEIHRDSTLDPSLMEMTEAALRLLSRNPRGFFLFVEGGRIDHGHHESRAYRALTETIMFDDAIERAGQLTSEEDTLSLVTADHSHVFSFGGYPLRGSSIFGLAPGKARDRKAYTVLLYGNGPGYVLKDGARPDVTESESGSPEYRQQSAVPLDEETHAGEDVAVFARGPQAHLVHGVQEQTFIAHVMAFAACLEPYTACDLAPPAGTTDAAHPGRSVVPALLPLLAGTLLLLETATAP

This assay addresses Alkaline phosphatase, placental type (Homo sapiens) (UniProt P05187). The assay can be described thus: PLAP enzyme activators, dose response, selectivity assay for human IAP activator project, biochemical, uHTS hits, luminescence (AID 488888). To be noted: purified PLAP, CDP-Star luminescence, 30 min.
On to `CCn1c(C)nc2cc(C(=O)N/N=C/c3cccc(O)c3O)ccc21`, for which the EC50 (commonly the concentration that produces a half-maximal response) was 10.9 µM.

Take `COc1ccccc1N(C)S(=O)(=O)c1ccc(Cl)c(C(=O)NNC(=O)c2ccccc2O)c1`: the EC50 is 19.5 µM.

`Cc1ccc(-c2cc(C(=O)N/N=C/c3ccccc3O)n[nH]2)o1`: the EC50 was 8.04 µM.

`c1ccc(-c2cccc(-c3ccccn3)n2)nc1`: the EC50 was 27.1 µM.

As to `C[C@@H](NC(=O)c1[nH]cnc1C(=O)Nc1ccon1)c1ccccc1`, the concentration giving a half-maximal response (EC50) is 19.8 µM.

Take `Cc1nc2c3ccccc3nc(NNC(=O)CCC(=O)NCCN3CCN(c4ccccc4)CC3)n2n1`: the EC50 is 15.3 µM.

`COc1cccc(/C=N\NC(=O)C2=NNC(=O)C2C)c1O` (stereo not given): the EC50 is 7.82 µM.

For the compound `CC(C)n1cc(CN2CCC(C(=O)Nc3cccc(-c4cccc(Cl)c4)c3)CC2)cn1`, the EC50 is 78.1 µM.

Consider `C=CCn1c(O)c(N=Nc2ccccc2O)c2ccccc21`, for which the EC50 was 0.663 µM.

Regarding `O=C(NN1C(=O)CSC1=S)C(=O)NN1C(=O)CSC1=S`, the EC50 is 14.5 µM.

As for `Cc1[nH]n(-c2nc(-c3ccccc3)cc(=O)[nH]2)c(=O)c1CCO`, the EC50 was 30.8 µM.

For the compound `Cc1ccc(S(=O)(=O)NCCC(=O)NNC(=O)COc2ccc(Br)cc2)cc1C`, the EC50 was 16.7 µM.

In the case of `COc1cc(NC(=O)NCC2CCN(Cc3ccccc3C)CC2)cc(OC)c1OC`, the EC50 is 78.9 µM.

Consider `Cc1nc(Nc2nc3c(c(=O)[nH]2)CCC3)nc2ccccc12`, for which the EC50 was 18.7 µM.

On to `C=CCN1C(=O)C2(NNc3ccccc3O2)c2ccccc21` (stereo not given), for which the EC50 is 0.718 µM.

`Cc1cccc(OCC(=O)NNC(=O)c2ccc3nc[nH]c3c2)c1`: the EC50 is 15.6 µM.

Regarding `O=C(NNC(=S)NC1CCCCC1)c1ccccc1Br`, the EC50 is 16.4 µM.

With `CCOC(=O)c1cnc(-n2nc(C)cc2C)nc1NNc1nc(C)cc(C)n1`, the EC50 is 25 µM.

Turning to `CSCCC(NS(=O)(=O)c1ccccc1F)C(=O)NNC(=O)c1csc(N2CCOCC2)n1` (stereo not given), the EC50 is 12.5 µM.

With `O=C(CCN1C(=O)/C(=C/c2ccccc2Cl)SC1=S)NNC(=O)c1ccccc1O`, the EC50 was 25.3 µM.

Consider `O=C(N/N=C/c1ccc(O)cc1O)C(=O)N/N=C/c1ccc(O)cc1O`, for which the EC50 was 5.73 µM.

On to `NC(CO)C(=O)NNCc1ccc(O)c(O)c1O` (stereo not given), for which the EC50 was 11.5 µM.

As for `CC(=O)Nc1cccc(C(=O)NNC(=O)c2n[nH]c(=O)c3ccccc23)c1`, the EC50 is 12.5 µM.

As to `COc1cc(CN2CCC(n3nccc3NC(=O)CCCc3ccccc3)CC2)ccc1F`, the EC50 is 81.4 µM.

Turning to `COc1ccccc1CCNC(=O)C1CCN(c2nnc(C)c3c(C)n(-c4ccc(C)cc4)nc23)CC1`, the EC50 was 56 µM.

On to `CC(C)Oc1ccc(CCC(=O)NNC(=S)NCc2ccccc2)cc1`, for which the EC50 is 21.2 µM.

For the compound `OC(c1nc2ccc(F)cc2[nH]1)C(O)c1nc2ccc(F)cc2[nH]1` (stereo not given), the EC50 is 10.5 µM.

On to `Cc1cc(Br)ccc1SCC(=O)OC/C(O)=C(\C#N)c1nc2ccccc2[nH]1`, for which the EC50 was 25.5 µM.

In the case of `O=C(O)c1ccccc1C(=O)Nc1cc(-c2ccccc2)[nH]n1`, the EC50 was > 100 µM (inactive).

`Cc1c(C(=O)N/N=C/c2c(O)ccc3ccccc23)nnn1-c1nonc1N`: the EC50 was 16.4 µM.

For the compound `Cc1nn(C)c(C(=O)NNC(=S)NCc2ccccc2)c1Cl`, the EC50 was 18.6 µM.

Take `CCC(C)(C)C1CCc2[nH]nc(C(=O)N/N=C(\C)c3ccco3)c2C1` (stereo not given): the EC50 is 59.3 µM.

For the compound `COc1ccc(OC)c(NC(=O)c2cc(-c3cc(C)ccc3O)n[nH]2)c1`, the EC50 was 23.1 µM.

As for `O=C(/C=C/c1cccs1)NC(=S)NNC(=O)c1ccccc1O`, the EC50 was 12.7 µM.

`COc1cc(NC(=O)NCC2CCN(Cc3ccccc3Cl)CC2)cc(OC)c1OC`: the EC50 is 64.2 µM.

For `O=C(NC(=S)NNC(=O)c1ccccc1O)c1ccc(F)cc1`, the EC50 was 13.6 µM.

In the case of `COc1ccccc1CN1CCC(n2nccc2NC(=O)CCCc2ccccc2)CC1`, the EC50 is 69 µM.

Consider `O=C(Cc1ccc(Cl)c(Cl)c1)NNC(=S)NCC1CCCO1` (stereo not given), for which the EC50 was 20.7 µM.

In the case of `COc1ccc(O)c(/C=N/NC(=S)NCCc2ccccc2)c1`, the EC50 is 19.1 µM.

For `O=C1Nc2ccc(Br)cc2C12NNc1ccccc1O2` (stereo not given), the EC50 was 0.55 µM.

Consider `O=C(NNC(=S)NC(=O)c1ccccc1[N+](=O)[O-])c1ccccc1O`, for which the EC50 was 10.5 µM.

Consider `CCCOCC(O)CC(CC)C(=O)NNC(=S)Nc1ccccc1` (stereo not given), for which the EC50 is 16.7 µM.

Take `Cc1cc(C(=O)NC2CC(C)(C)Cc3c2cnn3-c2ccccc2)n[nH]1` (stereo not given): the EC50 is 53.1 µM.

For `O=C(O)C1OC(Oc2c(-c3ccc(O)c(O)c3)oc3cc(O)cc(O)c3c2=O)C(O)C(O)C1O` (stereo not given), the EC50 was > 100 µM (inactive).

Turning to `O=Nc1[nH]c(=O)c(/C=C(\O)c2ccccc2)nc1NO`, the concentration giving a half-maximal response (EC50) was 9.75 µM.

Take `O=c1oc(-c2ccc(O)c(O)c2)cc2cc(O)cc(O)c12`: the EC50 was > 100 µM (inactive).

In the case of `CC(NS(=O)(=O)c1ccc(Br)cc1)C(=O)Nc1nc2ccccc2[nH]1` (stereo not given), the EC50 is 14.7 µM.

For the compound `CC(C)Oc1ccc(C(=O)Nc2ncn[nH]2)cc1`, the EC50 was 24.1 µM.

Consider `COc1cc(OC)cc(C(=O)NNC(=O)c2nn(C)c(=O)c3ccccc23)c1`, for which the EC50 is 13.9 µM.

Turning to `O=C(Nc1ccon1)c1nc[nH]c1C(=O)NCc1ccccc1`, the EC50 was 15.5 µM.

For the compound `Cc1ccsc1C(=O)NNC(=S)NC1CCCCC1`, the EC50 is 14.3 µM.

Turning to `CC1=NN(c2nc3ccccc3[nH]2)C(=O)/C1=C/N(C)C`, the EC50 was 15.3 µM.

For `CCn1nc(C)c(CN2CCC(C(=O)Nc3cccc(-c4cccc(F)c4)c3)CC2)c1C`, the EC50 is 53.7 µM.

`O=C(NNC(=S)NC(=O)c1ccccc1)c1cccnc1`: the EC50 is 18.7 µM.

On to `O=c1c2ccccc2nc(N/N=C/c2c(O)ccc3ccccc23)n1O`, for which the EC50 was 35.2 µM.

`Cc1cccc(CC(Cc2nc3ccccc3[nH]2)c2nc3ccccc3[nH]2)c1` (stereo not given): the EC50 is 60.8 µM.

Turning to `Cc1cc(C)cc(OCC(=O)NNC(=O)c2cc(C)[nH]n2)c1`, the EC50 was 18.7 µM.

For the compound `COc1ccc(C2=NN(C3=NN=C(N)Cc4ncnn43)C(O)(C(F)(F)F)C2)cc1` (stereo not given), the EC50 is 14.4 µM.

As for `COc1ccccc1C1=NN(C2=NN=C(N)Cc3ncnn32)C(O)(C(F)(F)F)C1` (stereo not given), the EC50 was 12.3 µM.

For the compound `O=c1cc(-c2ccccc2)[nH]n1-c1nc2ccccc2[nH]1`, the 50% effective concentration (EC50) was 15.2 µM.

For the origin of these results see PubChem BioAssay AID488888 (Sanford-Burnham Center for Chemical Genomics, 2010).
